Experimental data published in ChEMBL document CHEMBL1201862, “PubChem BioAssay data set” (2004).
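Briefly, cells in 96-well plates were exposed to five compound concentrations for 48 h, and endpoints were estimated by linear interpolation. The concentration for 50% growth inhibition is given as GI50.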 Calls of active or inactive are those of the source. Cut-off read from the data, not from the text of the source: active = GI50 up to about 1.1 µM and inactive = higher.

Legend:
Test in all cases: NCI-60 cell line screen, 48 h
[1] = system: 786-0
[2] = system: A498
[3] = system: A549
[4] = system: ACHN
[5] = system: BT-549
[6] = system: CAKI-1
[7] = system: CCRF-CEM
[8] = system: COLO 205
[9] = system: DU-145
[10] = system: EKVX
[11] = system: HCC 2998
[12] = system: HCT-116
[13] = system: HCT-15
[14] = system: HL-60
[15] = system: HOP-62
[16] = system: HOP-92
[17] = system: HT-29
[18] = system: Hs-578T
[19] = system: IGROV-1
[20] = system: K562
[21] = system: KM12
[22] = system: LOX IMVI
[23] = system: M14
[24] = system: MCF7
[25] = system: MDA-MB-435
[26] = system: MDA-N
[27] = system: MOLT-4
[28] = system: Malme-3M
[29] = system: NCI-H226
[30] = system: NCI-H23
[31] = system: NCI-H460
[32] = system: NCI-H522
[33] = system: NCI/ADR-RES
[34] = system: OVCAR-3
[35] = system: OVCAR-4
[36] = system: OVCAR-5
[37] = system: OVCAR-8
[38] = system: PC-3
[39] = system: RPMI-8226
[40] = system: RXF 393
[41] = system: SF-268
[42] = system: SF-295
[43] = system: SF-539
[44] = system: SK-MEL-28
[45] = system: SK-MEL-2
[46] = system: SK-MEL-5
[47] = system: SK-OV-3
[48] = system: SN12C
[49] = system: SNB-19
[50] = system: SNB-75
[51] = system: SR
[52] = system: SW-620
[53] = system: T47D
[54] = system: TK-10
[55] = system: U-251
[56] = system: UACC-257
[57] = system: UACC-62
[58] = system: UO-31
[59] = system: MDA-MB-231

Structure (SMILES): COc1c(C(CC(C)C)OC(C)=O)ccc2c1C(=O)OCc1cc(C)cc(O)c1O2 (centres undefined)
- GI50 [1]: 15.5 µM (inactive)
- GI50 [2]: 20.3 µM (inactive)
- GI50 [3]: 12.4 µM (inactive)
- GI50 [4]: 10.5 µM (inactive)
- GI50 [5]: 16.2 µM (inactive)
- GI50 [6]: 16.1 µM (inactive)
- GI50 [7]: > 100 µM (inactive)
- GI50 [8]: 17.6 µM (inactive)
- GI50 [9]: 12.5 µM (inactive)
- GI50 [10]: 11.8 µM (inactive)
- GI50 [11]: 12.8 µM (inactive)
- GI50 [12]: 12.6 µM (inactive)
- GI50 [13]: 10.1 µM
- GI50 [14]: > 100 µM (inactive)
- GI50 [15]: 18.7 µM (inactive)
- GI50 [16]: 11.9 µM (inactive)
- GI50 [17]: 17.8 µM (inactive)
- GI50 [18]: 22.1 µM (inactive)
- GI50 [19]: 16.6 µM (inactive)
- GI50 [20]: > 100 µM (inactive)
- GI50 [21]: 19.3 µM (inactive)
- GI50 [22]: 12.6 µM (inactive)
- GI50 [23]: 16.7 µM (inactive)
- GI50 [24]: 11.8 µM (inactive)
- GI50 [25]: 13.7 µM (inactive)
- GI50 [26]: 15.1 µM (inactive)
- GI50 [27]: 12.8 µM (inactive)
- GI50 [28]: 16.1 µM (inactive)
- GI50 [29]: 14.9 µM (inactive)
- GI50 [30]: 10.3 µM (inactive)
- GI50 [31]: 12.6 µM (inactive)
- GI50 [32]: 13.2 µM (inactive)
- GI50 [33]: 12.5 µM (inactive)
- GI50 [34]: 10.5 µM (inactive)
- GI50 [35]: 13.9 µM (inactive)
- GI50 [36]: 15.1 µM (inactive)
- GI50 [37]: 16.7 µM (inactive)
- GI50 [38]: 9.73 µM (inactive)
- GI50 [39]: > 100 µM (inactive)
- GI50 [40]: 18.2 µM (inactive)
- GI50 [41]: 14.3 µM (inactive)
- GI50 [42]: 14.4 µM (inactive)
- GI50 [43]: 18.2 µM (inactive)
- GI50 [44]: 15.8 µM (inactive)
- GI50 [45]: 19.1 µM (inactive)
- GI50 [46]: 11.1 µM (inactive)
- GI50 [47]: 15.8 µM (inactive)
- GI50 [48]: 14.2 µM (inactive)
- GI50 [49]: 14.8 µM (inactive)
- GI50 [50]: 19.2 µM (inactive)
- GI50 [51]: > 100 µM (inactive)
- GI50 [52]: 17.5 µM (inactive)
- GI50 [53]: 11.3 µM (inactive)
- GI50 [54]: 17.7 µM (inactive)
- GI50 [55]: 14.9 µM (inactive)
- GI50 [56]: 8.47 µM (inactive)
- GI50 [57]: 12.7 µM (inactive)
- GI50 [58]: 6.95 µM (inactive)

Structure (SMILES): Cc1ccc(S(=O)(=O)NC(=O)NC(CCCCN)C(=O)O)cc1 (centres undefined)
- GI50 [1]: > 100 µM (inactive)
- GI50 [3]: > 100 µM (inactive)
- GI50 [4]: > 100 µM (inactive)
- GI50 [5]: > 100 µM (inactive)
- GI50 [7]: > 100 µM (inactive)
- GI50 [8]: > 100 µM (inactive)
- GI50 [9]: > 100 µM (inactive)
- GI50 [12]: > 100 µM (inactive)
- GI50 [13]: > 100 µM
- GI50 [14]: > 100 µM (inactive)
- GI50 [15]: > 100 µM (inactive)
- GI50 [16]: 70 µM (inactive)
- GI50 [18]: > 100 µM (inactive)
- GI50 [19]: > 100 µM (inactive)
- GI50 [20]: > 100 µM (inactive)
- GI50 [21]: > 100 µM (inactive)
- GI50 [22]: > 100 µM (inactive)
- GI50 [23]: > 100 µM (inactive)
- GI50 [24]: > 100 µM (inactive)
- GI50 [59]: > 100 µM (inactive)
- GI50 [26]: > 100 µM (inactive)
- GI50 [27]: > 100 µM (inactive)
- GI50 [28]: > 100 µM (inactive)
- GI50 [30]: > 100 µM (inactive)
- GI50 [31]: > 100 µM (inactive)
- GI50 [32]: > 100 µM (inactive)
- GI50 [33]: > 100 µM (inactive)
- GI50 [35]: > 100 µM (inactive)
- GI50 [37]: > 100 µM (inactive)
- GI50 [38]: > 100 µM (inactive)
- GI50 [39]: > 100 µM (inactive)
- GI50 [40]: > 100 µM (inactive)
- GI50 [41]: > 100 µM (inactive)
- GI50 [42]: > 100 µM (inactive)
- GI50 [43]: > 100 µM (inactive)
- GI50 [44]: > 100 µM (inactive)
- GI50 [45]: > 100 µM (inactive)
- GI50 [46]: > 100 µM (inactive)
- GI50 [47]: > 100 µM (inactive)
- GI50 [48]: > 100 µM (inactive)
- GI50 [49]: > 100 µM (inactive)
- GI50 [50]: > 100 µM (inactive)
- GI50 [51]: > 100 µM (inactive)
- GI50 [52]: > 100 µM (inactive)
- GI50 [53]: > 100 µM (inactive)
- GI50 [54]: > 100 µM (inactive)
- GI50 [55]: > 100 µM (inactive)
- GI50 [56]: > 100 µM (inactive)
- GI50 [57]: > 100 µM (inactive)
- GI50 [58]: > 100 µM (inactive)

Structure (SMILES): C(=C\c1ccccc1)/C=N/c1ccc2c(c1)Cc1ccccc1-2
- GI50 [1]: 54.2 µM (inactive)
- GI50 [2]: > 100 µM (inactive)
- GI50 [3]: > 100 µM (inactive)
- GI50 [4]: > 100 µM (inactive)
- GI50 [5]: 60.4 µM (inactive)
- GI50 [6]: > 100 µM (inactive)
- GI50 [7]: 14.7 µM (inactive)
- GI50 [9]: 31.3 µM (inactive)
- GI50 [10]: 49.1 µM (inactive)
- GI50 [12]: 35.9 µM (inactive)
- GI50 [13]: > 100 µM
- GI50 [15]: > 100 µM (inactive)
- GI50 [16]: > 100 µM (inactive)
- GI50 [17]: > 100 µM (inactive)
- GI50 [18]: 50.8 µM (inactive)
- GI50 [19]: 61.5 µM (inactive)
- GI50 [20]: 34.2 µM (inactive)
- GI50 [21]: > 100 µM (inactive)
- GI50 [22]: 23.9 µM (inactive)
- GI50 [23]: 62.2 µM (inactive)
- GI50 [59]: 65 µM (inactive)
- GI50 [25]: 58.1 µM (inactive)
- GI50 [26]: 44 µM (inactive)
- GI50 [27]: 31 µM (inactive)
- GI50 [28]: > 100 µM (inactive)
- GI50 [29]: > 100 µM (inactive)
- GI50 [30]: 36.1 µM (inactive)
- GI50 [31]: 58.1 µM (inactive)
- GI50 [32]: 36.8 µM (inactive)
- GI50 [33]: 51.3 µM (inactive)
- GI50 [34]: 46 µM (inactive)
- GI50 [35]: 63.8 µM (inactive)
- GI50 [36]: > 100 µM (inactive)
- GI50 [37]: 57.9 µM (inactive)
- GI50 [38]: 69 µM (inactive)
- GI50 [40]: > 100 µM (inactive)
- GI50 [41]: 38.9 µM (inactive)
- GI50 [42]: > 100 µM (inactive)
- GI50 [44]: 97.3 µM (inactive)
- GI50 [45]: 57.1 µM (inactive)
- GI50 [46]: 98.9 µM (inactive)
- GI50 [48]: 41.1 µM (inactive)
- GI50 [49]: 61.4 µM (inactive)
- GI50 [50]: 38.6 µM (inactive)
- GI50 [51]: 24 µM (inactive)
- GI50 [52]: 69 µM (inactive)
- GI50 [53]: 76.7 µM (inactive)
- GI50 [54]: 60.8 µM (inactive)
- GI50 [55]: 18.7 µM (inactive)
- GI50 [57]: > 100 µM (inactive)
- GI50 [58]: > 100 µM (inactive)
